Key:
[1] = target: Delta-type opioid receptor (Homo sapiens, UniProt P41143)
[2] = target: T1, Gamma-aminobutyric acid receptor subunit alpha-1 (Rattus norvegicus, UniProt P62813)
[3] = target: T1, Gamma-aminobutyric acid receptor subunit alpha-1; remark: listed apart in the source
[4] = target: T2, Amine oxidase [flavin-containing] A (Homo sapiens, UniProt P21397); assay type: functional
T2 sequence (P21397 whole entry): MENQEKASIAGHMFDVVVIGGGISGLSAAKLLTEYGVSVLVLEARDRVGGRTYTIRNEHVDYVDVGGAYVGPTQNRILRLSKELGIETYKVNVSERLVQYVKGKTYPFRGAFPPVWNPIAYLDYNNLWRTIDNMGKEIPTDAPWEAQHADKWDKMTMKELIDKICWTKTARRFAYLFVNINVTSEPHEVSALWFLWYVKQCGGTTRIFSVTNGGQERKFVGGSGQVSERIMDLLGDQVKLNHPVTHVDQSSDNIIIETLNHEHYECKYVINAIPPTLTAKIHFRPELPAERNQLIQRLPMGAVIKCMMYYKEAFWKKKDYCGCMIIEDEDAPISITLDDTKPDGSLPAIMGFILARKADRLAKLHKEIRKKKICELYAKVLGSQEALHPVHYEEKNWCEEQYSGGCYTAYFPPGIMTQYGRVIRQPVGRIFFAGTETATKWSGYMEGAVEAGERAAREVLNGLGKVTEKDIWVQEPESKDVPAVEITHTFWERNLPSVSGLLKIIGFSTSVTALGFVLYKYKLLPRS

[5] = target: T3, Alpha-1A adrenergic receptor (Homo sapiens, UniProt P35348); assay type: functional, cell-based
T3 sequence (P35348 whole entry): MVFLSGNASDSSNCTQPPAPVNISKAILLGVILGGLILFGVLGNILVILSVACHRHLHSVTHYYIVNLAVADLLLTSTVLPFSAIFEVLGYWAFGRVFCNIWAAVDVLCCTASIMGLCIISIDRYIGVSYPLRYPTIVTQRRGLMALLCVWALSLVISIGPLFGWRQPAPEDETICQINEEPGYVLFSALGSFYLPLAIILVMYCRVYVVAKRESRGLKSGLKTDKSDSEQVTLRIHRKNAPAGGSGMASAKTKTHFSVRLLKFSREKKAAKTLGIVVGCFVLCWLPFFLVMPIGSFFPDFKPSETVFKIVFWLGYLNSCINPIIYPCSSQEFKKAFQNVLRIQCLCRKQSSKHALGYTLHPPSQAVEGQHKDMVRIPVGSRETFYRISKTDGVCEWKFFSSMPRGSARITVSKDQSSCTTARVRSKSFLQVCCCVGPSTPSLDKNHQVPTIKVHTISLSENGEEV

[6] = target: Beta-2 adrenergic receptor (Homo sapiens, UniProt P07550)
Sequence of Beta-2 adrenergic receptor (P07550 whole entry): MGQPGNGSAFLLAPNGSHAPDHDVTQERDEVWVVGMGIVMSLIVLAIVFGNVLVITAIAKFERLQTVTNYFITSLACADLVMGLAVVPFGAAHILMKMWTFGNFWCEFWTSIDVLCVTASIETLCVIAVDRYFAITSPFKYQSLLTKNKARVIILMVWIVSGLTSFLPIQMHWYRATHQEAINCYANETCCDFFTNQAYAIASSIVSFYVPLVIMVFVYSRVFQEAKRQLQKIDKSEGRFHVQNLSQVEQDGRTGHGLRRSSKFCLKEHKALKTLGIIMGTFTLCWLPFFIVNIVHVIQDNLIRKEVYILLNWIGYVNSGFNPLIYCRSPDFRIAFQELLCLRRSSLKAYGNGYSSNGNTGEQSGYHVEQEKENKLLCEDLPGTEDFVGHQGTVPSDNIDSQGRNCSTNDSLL

Cannabinoid receptor 1 = Cannabinoid receptor 1 (Homo sapiens, UniProt P21554)
Sequence of Cannabinoid receptor 1 (P21554 whole entry): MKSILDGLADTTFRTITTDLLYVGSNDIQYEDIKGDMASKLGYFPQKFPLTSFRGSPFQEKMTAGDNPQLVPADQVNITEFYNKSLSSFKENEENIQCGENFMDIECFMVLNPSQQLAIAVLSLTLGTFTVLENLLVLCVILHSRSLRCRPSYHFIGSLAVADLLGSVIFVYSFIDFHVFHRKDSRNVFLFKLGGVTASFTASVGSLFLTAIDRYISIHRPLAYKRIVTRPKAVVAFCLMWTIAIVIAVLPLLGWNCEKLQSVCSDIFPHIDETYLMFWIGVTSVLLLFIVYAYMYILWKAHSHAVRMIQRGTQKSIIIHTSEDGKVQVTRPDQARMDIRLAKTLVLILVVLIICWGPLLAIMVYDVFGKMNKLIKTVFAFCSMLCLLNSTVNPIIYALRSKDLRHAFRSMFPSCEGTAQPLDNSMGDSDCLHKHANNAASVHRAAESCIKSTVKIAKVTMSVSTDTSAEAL

[7] = target: Neuronal acetylcholine receptor subunit alpha-4 (Homo sapiens, UniProt P43681)
Sequence of Neuronal acetylcholine receptor subunit alpha-4 (P43681 whole entry): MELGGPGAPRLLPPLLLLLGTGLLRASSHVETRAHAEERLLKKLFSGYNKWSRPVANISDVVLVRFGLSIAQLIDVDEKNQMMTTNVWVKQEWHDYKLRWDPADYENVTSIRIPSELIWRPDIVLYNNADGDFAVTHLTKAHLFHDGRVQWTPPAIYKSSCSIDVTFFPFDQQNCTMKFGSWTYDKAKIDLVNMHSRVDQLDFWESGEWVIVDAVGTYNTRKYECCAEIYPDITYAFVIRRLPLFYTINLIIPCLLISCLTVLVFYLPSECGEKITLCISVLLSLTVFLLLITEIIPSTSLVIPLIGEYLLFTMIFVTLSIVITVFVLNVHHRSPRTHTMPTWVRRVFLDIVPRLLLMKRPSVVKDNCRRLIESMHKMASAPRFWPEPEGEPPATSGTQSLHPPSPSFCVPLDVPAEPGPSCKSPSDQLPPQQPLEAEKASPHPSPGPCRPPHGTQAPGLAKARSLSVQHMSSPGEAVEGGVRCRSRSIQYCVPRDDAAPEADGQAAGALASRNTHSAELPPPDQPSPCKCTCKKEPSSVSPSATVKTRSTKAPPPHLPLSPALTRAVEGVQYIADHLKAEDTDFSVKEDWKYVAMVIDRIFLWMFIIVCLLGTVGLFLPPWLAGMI

Endothelin-1 receptor = target: T4, Endothelin-1 receptor (Homo sapiens, UniProt P25101)
T4 sequence (P25101 whole entry): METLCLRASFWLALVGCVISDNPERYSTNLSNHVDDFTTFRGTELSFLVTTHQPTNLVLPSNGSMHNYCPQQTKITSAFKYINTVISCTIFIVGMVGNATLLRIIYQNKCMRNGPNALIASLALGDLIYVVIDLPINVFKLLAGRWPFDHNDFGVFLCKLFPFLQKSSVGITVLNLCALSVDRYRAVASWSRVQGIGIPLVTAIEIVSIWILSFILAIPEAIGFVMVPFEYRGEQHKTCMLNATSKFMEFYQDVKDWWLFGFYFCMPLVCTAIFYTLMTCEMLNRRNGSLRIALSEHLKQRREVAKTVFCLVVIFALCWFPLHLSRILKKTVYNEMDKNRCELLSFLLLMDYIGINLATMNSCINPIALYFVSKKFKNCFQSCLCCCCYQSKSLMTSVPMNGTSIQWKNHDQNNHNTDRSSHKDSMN

Mu-type opioid receptor = Mu-type opioid receptor (Homo sapiens, UniProt P35372)
Sequence of Mu-type opioid receptor (P35372 whole entry): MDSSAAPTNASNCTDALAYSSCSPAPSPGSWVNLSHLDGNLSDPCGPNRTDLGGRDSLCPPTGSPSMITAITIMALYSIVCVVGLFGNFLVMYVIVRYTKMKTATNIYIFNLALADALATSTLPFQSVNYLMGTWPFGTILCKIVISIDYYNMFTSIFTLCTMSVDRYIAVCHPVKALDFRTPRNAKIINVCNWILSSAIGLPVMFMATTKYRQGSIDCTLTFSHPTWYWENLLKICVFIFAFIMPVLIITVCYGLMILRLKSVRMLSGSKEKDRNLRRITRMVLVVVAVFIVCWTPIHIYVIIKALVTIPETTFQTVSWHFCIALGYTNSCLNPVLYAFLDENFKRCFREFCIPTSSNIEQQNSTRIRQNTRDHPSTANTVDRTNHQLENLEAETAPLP

B2 bradykinin receptor = target: T5, B2 bradykinin receptor (Homo sapiens, UniProt P30411)
T5 sequence (P30411 whole entry): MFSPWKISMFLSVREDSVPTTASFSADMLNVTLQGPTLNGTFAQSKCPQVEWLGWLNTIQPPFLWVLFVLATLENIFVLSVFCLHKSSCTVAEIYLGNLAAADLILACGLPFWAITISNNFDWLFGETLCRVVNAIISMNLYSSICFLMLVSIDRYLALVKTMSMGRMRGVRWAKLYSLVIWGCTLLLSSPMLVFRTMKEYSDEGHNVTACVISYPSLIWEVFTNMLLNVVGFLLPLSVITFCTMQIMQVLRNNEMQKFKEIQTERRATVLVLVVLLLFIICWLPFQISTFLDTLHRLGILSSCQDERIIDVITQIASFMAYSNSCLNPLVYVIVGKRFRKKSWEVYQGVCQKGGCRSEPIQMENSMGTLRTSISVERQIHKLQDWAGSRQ

[8] = target: T3, Alpha-1A adrenergic receptor; assay type: functional, cell-based; remark: listed apart in the source
[9] = target: T6, Muscarinic acetylcholine receptor M1 (Homo sapiens, UniProt P11229); assay type: functional, cell-based
T6 sequence (P11229 whole entry): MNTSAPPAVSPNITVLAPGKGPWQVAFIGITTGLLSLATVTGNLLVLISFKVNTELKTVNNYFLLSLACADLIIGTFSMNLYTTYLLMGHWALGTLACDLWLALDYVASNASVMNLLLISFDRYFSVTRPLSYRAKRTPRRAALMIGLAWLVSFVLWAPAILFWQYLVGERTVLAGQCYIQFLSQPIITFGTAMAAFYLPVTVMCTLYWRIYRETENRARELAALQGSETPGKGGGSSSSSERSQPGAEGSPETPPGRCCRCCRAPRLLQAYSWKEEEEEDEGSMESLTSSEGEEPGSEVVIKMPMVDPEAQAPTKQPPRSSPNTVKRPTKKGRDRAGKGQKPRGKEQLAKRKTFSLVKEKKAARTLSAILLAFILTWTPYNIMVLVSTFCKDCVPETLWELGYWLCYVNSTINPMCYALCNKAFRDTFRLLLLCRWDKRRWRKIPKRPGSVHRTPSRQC
Further: assay procedure not described here.

T1 sequence (P62813 whole entry): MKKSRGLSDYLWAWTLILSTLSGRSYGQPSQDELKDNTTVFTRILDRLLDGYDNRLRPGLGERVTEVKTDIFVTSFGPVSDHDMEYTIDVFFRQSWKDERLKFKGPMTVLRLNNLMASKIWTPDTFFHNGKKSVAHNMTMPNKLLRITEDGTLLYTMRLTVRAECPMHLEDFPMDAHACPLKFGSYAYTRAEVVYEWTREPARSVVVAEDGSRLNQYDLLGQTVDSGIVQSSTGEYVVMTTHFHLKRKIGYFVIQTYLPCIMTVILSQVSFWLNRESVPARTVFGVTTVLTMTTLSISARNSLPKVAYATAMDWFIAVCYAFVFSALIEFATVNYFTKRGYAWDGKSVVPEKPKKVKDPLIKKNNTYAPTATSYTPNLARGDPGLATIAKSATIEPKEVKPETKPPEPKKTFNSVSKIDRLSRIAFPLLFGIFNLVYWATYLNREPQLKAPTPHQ
Sequence of Delta-type opioid receptor (P41143 whole entry): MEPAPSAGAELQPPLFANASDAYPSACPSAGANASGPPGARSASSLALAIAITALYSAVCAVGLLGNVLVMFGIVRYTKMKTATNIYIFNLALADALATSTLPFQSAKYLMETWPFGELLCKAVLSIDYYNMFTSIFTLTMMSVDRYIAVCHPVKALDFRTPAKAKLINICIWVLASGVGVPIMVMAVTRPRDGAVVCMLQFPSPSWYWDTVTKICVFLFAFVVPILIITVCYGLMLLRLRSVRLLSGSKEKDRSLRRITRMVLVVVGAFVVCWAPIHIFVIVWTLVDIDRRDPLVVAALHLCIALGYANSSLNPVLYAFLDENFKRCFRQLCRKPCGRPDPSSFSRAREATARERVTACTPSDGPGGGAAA

Structure (SMILES) | AC50 [1] | AC50 [2] | AC50 [3] | AC50 [4] | AC50 [5] | AC50 [6] | AC50 (Cannabinoid receptor 1) | AC50 [7] | AC50 (Endothelin-1 receptor) | AC50 (Mu-type opioid receptor) | AC50 (B2 bradykinin receptor) | AC50 [8] | AC50 [9]
CN(CC1(C)CCCO1)S(=O)(=O)c1ccc(Cl)c(S(N)(=O)=O)c1 (centres undefined) [MEFRUSIDE] | > 30 µM | > 30 µM | > 30 µM | > 30 µM | > 30 µM | – | – | – | – | – | – | – | –
N[C@@H](CC(=O)N1CCn2c(nnc2C(F)(F)F)C1)Cc1cc(F)c(F)cc1F [SITAGLIPTIN] | > 30 µM | > 10 µM | – | > 30 µM | > 30 µM | > 10 µM | > 10 µM | > 30 µM | > 30 µM | > 30 µM | > 10 µM | – | –
Cc1ccccc1C(=O)Nc1ccc(C(=O)N2CCCC(N(C)C)c3ccccc32)cc1 (centres undefined) [MOZAVAPTAN] | – | – | – | – | – | – | – | – | – | – | – | 18.8 µM | 23.7 µM
CC(C)Cc1ccc(C(C)C(=O)O)cc1 (centres undefined) [IBUPROFEN] | > 30 µM | > 10 µM | – | > 10 µM | > 30 µM | > 10 µM | > 10 µM | > 10 µM | > 30 µM | > 30 µM | > 30 µM | > 30 µM | –
O=C(O)CO [GLYCOLIC ACID] | – | – | > 30 µM | – | – | – | – | – | – | – | – | – | –
CC(C)N(CCC(C(N)=O)(c1ccccc1)c1ccccn1)C(C)C (centres undefined) [DISOPYRAMIDE] | > 30 µM | > 10 µM | – | > 10 µM | > 30 µM | > 30 µM | > 10 µM | > 30 µM | > 30 µM | > 30 µM | > 30 µM | – | –
Nc1ccc(S(=O)(=O)Nc2nccs2)cc1 [SULFATHIAZOLE] | > 30 µM | > 10 µM | – | > 10 µM | > 30 µM | > 10 µM | > 10 µM | > 10 µM | > 30 µM | > 30 µM | > 30 µM | – | –
[H]/N=C(\N/C(=N/[H])Nc1ccc(Cl)cc1)NC(C)C [PROGUANIL] | – | – | – | – | – | – | – | – | – | – | – | > 30 µM | > 30 µM
C#C[C@]1(O)CC[C@H]2[C@@H]3CCC4=CC(=O)CC[C@@H]4[C@H]3C(=C)C[C@@]21CC [ETONOGESTREL] | > 30 µM | > 30 µM | 28 µM | > 30 µM | > 30 µM | – | – | – | – | – | – | – | –
C=CC[C@@H]1/C=C(\C)C[C@H](C)C[C@H](OC)[C@H]2O[C@@](O)(C(=O)C(=O)N3CCCC[C@H]3C(=O)O[C@H](/C(C)=C/[C@@H]3CC[C@@H](O)[C@H](OC)C3)[C@H](C)[C@@H](O)CC1=O)[C@H](C)C[C@@H]2OC [TACROLIMUS ANHYDROUS] | > 30 µM | > 30 µM | – | > 30 µM | > 30 µM | > 10 µM | > 10 µM | > 30 µM | > 30 µM | > 30 µM | > 30 µM | – | –
CN(C)CCc1c[nH]c2ccc(Cn3cncn3)cc12 [RIZATRIPTAN] | > 30 µM | > 30 µM | – | > 30 µM | > 30 µM | > 10 µM | > 10 µM | > 10 µM | > 30 µM | > 10 µM | > 30 µM | – | –
Cc1onc(-c2ccccc2)c1-c1ccc(S(N)(=O)=O)cc1 [VALDECOXIB] | > 30 µM | > 10 µM | – | > 10 µM | > 30 µM | 21.1 µM | > 10 µM | > 30 µM | > 30 µM | > 30 µM | > 30 µM | > 30 µM | –
C[C@H]1c2cccc(O)c2C(=O)C2=C(O)[C@]3(O)C(=O)C(C(N)=O)=C(O)[C@@H](N(C)C)[C@@H]3[C@@H](O)[C@@H]21 [DOXYCYCLINE] | > 30 µM | > 10 µM | – | > 10 µM | > 30 µM | > 10 µM | > 10 µM | > 10 µM | > 30 µM | > 30 µM | > 30 µM | – | –
CC(CN1CC(=O)NC(=O)C1)N1CC(=O)NC(=O)C1 (centres undefined) [RAZOXANE] | – | – | – | – | – | – | – | – | – | – | – | > 30 µM | > 30 µM
N[C@@H](CS)C(=O)O [CYSTEINE] | – | – | – | – | – | – | – | – | – | – | – | > 30 µM | > 30 µM
CCOC(=O)c1c(C)cc2c(CO)n[nH]c(=O)c2c1C [OXAGRELATE] | – | – | > 30 µM | – | – | – | – | – | – | – | – | – | –
CN1CCCCC1CCN1c2ccccc2Sc2ccc([S+](C)[O-])cc21 (centres undefined) [MESORIDAZINE] | – | – | – | – | – | – | – | – | – | – | – | 0.0171 µM | > 30 µM
COc1cc2nccc(Oc3ccc(NC(=O)C4(C(=O)Nc5ccc(F)cc5)CC4)cc3)c2cc1OC [CABOZANTINIB] | > 30 µM | – | – | > 30 µM | > 30 µM | – | – | > 30 µM | > 30 µM | > 30 µM | – | 9.03 µM | 2.72 µM
CCOC(=O)C1=C[C@@H](OC(CC)CC)[C@H](NC(C)=O)[C@@H](N)C1 [OSELTAMIVIR] | – | – | – | – | – | – | – | – | – | – | – | > 30 µM | > 30 µM
COc1c2ccoc2cc2oc(=O)ccc12 [BERGAPTEN] | – | – | – | – | – | – | – | – | – | – | – | > 30 µM | > 30 µM
CC(C)OC(=O)CCC/C=C\C[C@@H]1[C@@H](/C=C/C(F)(F)COc2ccccc2)[C@H](O)C[C@@H]1O [TAFLUPROST] | – | – | – | – | – | – | – | – | – | – | – | > 30 µM | > 30 µM
CC[C@@]1(O)C(=O)OCc2c1cc1n(c2=O)Cc2cc3c([N+](=O)[O-])cccc3nc2-1 [RUBITECAN] | – | – | > 30 µM | – | – | – | – | – | – | – | – | – | –
OC[C@@H](O)[C@@H](O)[C@H](O)[C@@H](O)CO [SORBITOL] | – | – | > 30 µM | – | – | – | – | – | – | – | – | – | –
C[C@@H]1C[C@H]2[C@@H]3CCC4=CC(=O)C=C[C@]4(C)[C@@]3(Cl)[C@@H](O)C[C@]2(C)[C@@]1(OC(=O)c1ccco1)C(=O)CCl [MOMETASONE FUROATE] | – | – | – | – | – | – | – | – | – | – | – | > 10 µM | > 30 µM
O=C1CCc2cc(OCCCCc3nnnn3C3CCCCC3)ccc2N1 [CILOSTAZOL] | > 30 µM | > 30 µM | – | > 30 µM | > 30 µM | > 30 µM | > 10 µM | > 30 µM | > 30 µM | > 30 µM | > 30 µM | – | –
Cc1onc(-c2ccccc2)c1C(=O)N[C@@H]1C(=O)N2[C@@H]1SC(C)(C)[C@@H]2C(=O)O [OXACILLIN] | – | – | – | – | – | – | – | – | – | – | – | > 30 µM | > 30 µM

From ChEMBL document CHEMBL5291721, “A preclinical secondary pharmacology resource illuminates target-adverse drug reaction associations of marketed drugs” (Nat Commun, 2023)
